Where two headings read alike, the source gives them in different places.
Experiments:
Algal = Algal toxicity; conditions: in vivo
Fish = Fish toxicity; conditions: in vivo
[1] = Biodegradability (OECD 306)

Compound | Algal toxicity (EC50) (Algal) [µg/mL] | Fish toxicity (LC50) (Fish) [µg/mL] | Biodegradability (OECD 306) ([1]; OECD 306) [%] | Biodegradability (OECD 306) [1] [%]
O=C(O)c1ccccc1SSc1ccccc1C(=O)O [Dithiodi(benzoic acid), o-dithiodibenzoic acid] | >100 | >100 | >30 | –
S=c1[nH]c2ccccc2s1 [Mercaptobenzothiazole] | <1 | <10 | <20 | –
N-Aminoethyloleyl-imidazoline | <1 | <10 | – | >60
